# From US12281149B2, “Modulators of G-protein coupled receptors” (priority 2021, dated 2025)
# pEC50: −log10 of the molar value. *1 amine or outer side, *2 acyl side, *3 side chain or, on linkers, in order; H or OH if unused. Where a SMILES comes first, the peptide text is derived from it. Side-chain parts run from the residue outwards. [ ]: non-standard residue; d: D form. The star is where a group is joined. Isobutyryl(2-(3-CN-5-F-Ph)) = CC(C)(C(=O)*)c1cc(F)cc(C#N)c1; β2hLeu(2S) = CC(C)C[C@@H](CN[*:1])C(=O)[*:2]; C20 diacid = O=C(O)CCCCCCCCCCCCCCCCCCC(=O)*; β2hAla(2S) = C[C@@H](CN[*:1])C(=O)[*:2]; γGlu = O=C(O)[C@H](CCC(=O)[*:2])N[*:1]; X55 = COc1cccc(C(C)(C)C(=O)*)c1; AEEA = NCCOCCOCC(=O)O; Aib = CC(C)(N)C(=O)O; βAla = NCCC(=O)O
# Tests used:
# Assay type in all cases: cell-based
# GLP-1 receptor [1] = target: T1, GLP-1 receptor (Homo sapiens, UniProt P43220); test: HitHunter cAMP assay, GLP-1 receptor; conditions: for pEC50: CHO cells stably expressing human GLP-1 receptor, cAMP accumulation, 30 min, read-out: EC50 GLP-1R; for Emax: CHO cells, cAMP, normalized to maximum signal from GLP-1 (high) and DMSO (low), read-out: Emax GLP-1R
# GIP receptor [2] = target: T2, GIP receptor (Homo sapiens, UniProt P48546); test: HitHunter cAMP assay, GIP receptor; conditions: for pEC50: CHO cells stably expressing GIP receptor, cAMP accumulation, 30 min, read-out: EC50 GIP-1R; for Emax: CHO cells, cAMP, normalized to maximum signal from GIP (high) and DMSO (low), read-out: Emax GIP-1R
# T2 sequence (P48546 22-466): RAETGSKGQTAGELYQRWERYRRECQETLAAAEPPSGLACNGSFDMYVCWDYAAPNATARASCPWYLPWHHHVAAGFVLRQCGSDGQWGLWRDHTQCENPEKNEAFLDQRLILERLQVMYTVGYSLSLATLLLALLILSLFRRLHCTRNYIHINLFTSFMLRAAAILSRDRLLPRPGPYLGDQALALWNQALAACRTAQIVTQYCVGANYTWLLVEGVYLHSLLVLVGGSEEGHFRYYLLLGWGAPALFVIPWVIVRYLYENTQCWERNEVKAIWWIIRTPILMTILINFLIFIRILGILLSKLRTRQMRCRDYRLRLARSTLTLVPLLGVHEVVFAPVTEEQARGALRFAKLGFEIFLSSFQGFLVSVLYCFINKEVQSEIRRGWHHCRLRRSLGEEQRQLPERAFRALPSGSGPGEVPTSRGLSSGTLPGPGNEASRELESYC
# GLP-1 receptor [3] = target: T1, GLP-1 receptor; test: PathHunter β-arrestin assay, GLP-1 receptor; design: host or cells: PathHunter CHO-K1 GLP1R β-Arrestin Cell Line; conditions: β-arrestin-2 recruitment, PathHunter CHO-K1 GLP1R β-Arrestin Cell Line, 90 min at 37° C.; normalized to GLP-1; read-out: GLP-1R β Arrestin EC50
# GIP receptor [4] = target: T2, GIP receptor; test: PathHunter β-arrestin assay, GIP receptor; design: host or cells: PathHunter CHO-K1 GIPR β-Arrestin Cell Line; conditions: β-arrestin-2 recruitment, PathHunter CHO-K1 GIPR β-Arrestin Cell Line, 90 min at 37° C.; normalized to GIP; read-out: GIPR β Arrestin EC50
# T1 sequence (P43220 24-463): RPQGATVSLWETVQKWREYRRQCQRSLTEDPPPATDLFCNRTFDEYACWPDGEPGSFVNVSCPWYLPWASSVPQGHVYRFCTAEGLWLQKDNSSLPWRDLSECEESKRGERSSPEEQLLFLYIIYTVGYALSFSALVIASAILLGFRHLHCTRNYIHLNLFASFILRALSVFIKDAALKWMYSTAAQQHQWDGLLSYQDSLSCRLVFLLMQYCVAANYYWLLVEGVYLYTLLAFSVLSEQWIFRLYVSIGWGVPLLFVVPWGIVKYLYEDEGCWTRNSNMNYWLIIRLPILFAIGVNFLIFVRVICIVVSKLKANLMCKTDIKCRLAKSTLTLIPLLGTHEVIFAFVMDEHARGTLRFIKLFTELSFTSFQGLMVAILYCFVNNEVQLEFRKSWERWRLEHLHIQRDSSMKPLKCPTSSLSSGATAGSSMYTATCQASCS
SMILES,pEC50 (GLP-1 receptor [1]),Emax (GLP-1 receptor [1]),pEC50 (GIP receptor [2]),Emax (GIP receptor [2]),pEC50 (GLP-1 receptor [3]),pEC50 (GIP receptor [4])
"CC[C@H](C)[C@H](NC(=O)[C@H](CO)NC(=O)[C@H](Cc1ccc(O)cc1)NC(=O)[C@H](CC(=O)O)NC(=O)[C@H](CO)NC(=O)[C@@H](NC(=O)[C@H](Cc1ccccc1)NC(=O)[C@@H](NC(=O)CNC(=O)[C@H](CCC(=O)O)NC(=O)CCNC(=O)[C@@]1(c2ccccc2)CNC(=O)C1)[C@@H](C)O)[C@@H](C)O)C(=O)N[C@@H](Cc1ccc(O)cc1)C(=O)N[C@@H](CC(C)C)C(=O)N[C@@H](CC(=O)O)C(=O)N[C@@H](CCCCN)C(=O)N[C@@H](CCC(N)=O)C(=O)N[C@@H](C)C(=O)N[C@@H](C)C(=O)NC(C)(C)C(=O)N[C@@H](CCC(=O)O)C(=O)N[C@@H](Cc1ccccc1)C(=O)N[C@H](C(=O)N[C@@H](CC(N)=O)C(=O)N[C@@H](Cc1c[nH]c2ccccc12)C(=O)N[C@@H](CC(C)C)C(=O)N[C@@H](CC(C)C)C(=O)N[C@@H](C)C(=O)NCC(=O)NCC(=O)N1CCC[C@H]1C(=O)N[C@@H](CO)C(=O)N[C@@H](CO)C(=O)NCC(=O)N[C@@H](C)C(=O)N1CCC[C@H]1C(=O)N1CCC[C@H]1C(=O)N1CCC[C@H]1C(=O)N[C@@H](CO)C(=O)N[C@@H](CCCCNC(=O)COCCOCCNC(=O)COCCOCCNC(=O)CC[C@H](NC(=O)CCCCCCCCCCCCCCCCCCC(=O)O)C(=O)O)C(N)=O)C(C)C (single isomer, unassigned) [Compound 125]",7.00 to 8.00,101%,7.00 to 8.00,105%,< 6.00,< 6.00
CC[C@H](C)[C@H](NC(=O)[C@H](CC(C)C)NC(=O)[C@H](Cc1c[nH]c2ccccc12)NC(=O)[C@H](CCC(N)=O)NC(=O)[C@@H](NC(=O)[C@H](Cc1ccccc1)NC(=O)[C@H](C)NC(=O)[C@H](CCCCNC(=O)COCCOCCNC(=O)COCCOCCNC(=O)CC[C@H](NC(=O)CCCCCCCCCCCCCCCCCCC(=O)O)C(=O)O)NC(=O)[C@H](CCC(N)=O)NC(=O)[C@H](C)NC(=O)[C@@H](NC(=O)[C@H](CCCCN)NC(=O)[C@H](CC(=O)O)NC(=O)[C@H](CC(C)C)NC(=O)C(C)(C)NC(=O)[C@@H](NC(=O)[C@H](CO)NC(=O)[C@H](Cc1ccc(O)cc1)NC(=O)[C@H](CC(=O)O)NC(=O)[C@H](CO)NC(=O)[C@@H](NC(=O)[C@H](Cc1ccccc1)NC(=O)[C@@H](NC(=O)CNC(=O)CC[C@H](NC(=O)CCNC(=O)C(C)(C)c1cc(F)cc(C#N)c1)C(=O)O)[C@@H](C)O)[C@@H](C)O)[C@@H](C)CC)[C@@H](C)CC)C(C)C)C(=O)N[C@@H](C)C(=O)NCC(=O)NCC(=O)N1CCC[C@H]1C(=O)N[C@@H](CO)C(=O)N[C@@H](CO)C(=O)NCC(=O)N[C@@H](C)C(=O)N1CCC[C@H]1C(=O)N1CCC[C@H]1C(=O)N1CCC[C@H]1C(=O)N[C@@H](CO)C(N)=O [Compound 110] ({Isobutyryl(2-(3-CN-5-F-Ph))-βAla-γGlu}-GTFTSDYSI[Aib]LDKIAQK([AEEA-AEEA-γGlu-C20 diacid])AFVQWLIAGGPSSGAPPPS-NH2),6.00 to 7.00,31%,6.00 to 7.00,32%,< 6.00,< 6.00
CC[C@H](C)[C@H](NC(=O)[C@H](CC(C)C)NC(=O)[C@H](Cc1c[nH]c2ccccc12)NC(=O)[C@H](CCC(N)=O)NC(=O)[C@@H](NC(=O)[C@H](Cc1ccccc1)NC(=O)[C@H](C)NC(=O)[C@H](CCCCNC(=O)COCCOCCNC(=O)COCCOCCNC(=O)CC[C@H](NC(=O)CCCCCCCCCCCCCCCCCCC(=O)O)C(=O)O)NC(=O)[C@H](CCC(N)=O)NC(=O)[C@H](C)NC(=O)[C@@H](NC(=O)[C@H](CCCCN)NC(=O)[C@H](CC(=O)O)NC(=O)[C@H](CC(C)C)NC(=O)C(C)(C)NC(=O)[C@@H](NC(=O)[C@H](CO)NC(=O)[C@H](Cc1ccc(O)cc1)NC(=O)[C@H](CC(=O)O)NC(=O)[C@H](CO)NC(=O)[C@@H](NC(=O)[C@H](Cc1ccccc1)NC(=O)[C@@H](NC(=O)CNC(=O)[C@H](CCC(=O)O)NC(=O)[C@H](CNC(=O)C(C)(C)c1cc(F)cc(C#N)c1)CC(C)C)[C@@H](C)O)[C@@H](C)O)[C@@H](C)CC)[C@@H](C)CC)C(C)C)C(=O)N[C@@H](C)C(=O)NCC(=O)NCC(=O)N1CCC[C@H]1C(=O)N[C@@H](CO)C(=O)N[C@@H](CO)C(=O)NCC(=O)N[C@@H](C)C(=O)N1CCC[C@H]1C(=O)N1CCC[C@H]1C(=O)N1CCC[C@H]1C(=O)N[C@@H](CO)C(N)=O [Compound 193] ({Isobutyryl(2-(3-CN-5-F-Ph))}-[β2hLeu(2S)]EGTFTSDYSI[Aib]LDKIAQK([AEEA-AEEA-γGlu-C20 diacid])AFVQWLIAGGPSSGAPPPS-NH2),7.00 to 8.00,77%,6.00 to 7.00,70%,< 6.00,< 6.00
CC[C@H](C)[C@H](NC(=O)[C@H](CC(C)C)NC(=O)[C@H](Cc1c[nH]c2ccccc12)NC(=O)[C@H](CCC(N)=O)NC(=O)[C@@H](NC(=O)[C@H](Cc1ccccc1)NC(=O)[C@H](C)NC(=O)[C@H](CCCCNC(=O)COCCOCCNC(=O)COCCOCCNC(=O)CC[C@H](NC(=O)CCCCCCCCCCCCCCCCCCC(=O)O)C(=O)O)NC(=O)[C@H](CCC(N)=O)NC(=O)[C@H](C)NC(=O)[C@@H](NC(=O)[C@H](CCCCN)NC(=O)[C@H](CC(=O)O)NC(=O)[C@H](CC(C)C)NC(=O)C(C)(C)NC(=O)[C@@H](NC(=O)[C@H](CO)NC(=O)[C@H](Cc1ccc(O)cc1)NC(=O)[C@H](CC(=O)O)NC(=O)[C@H](CO)NC(=O)[C@@H](NC(=O)[C@H](Cc1ccccc1)NC(=O)[C@@H](NC(=O)CNC(=O)[C@H](CCC(=O)O)NC(=O)[C@@H](C)CNC(=O)C(C)(C)c1cc(F)cc(C#N)c1)[C@@H](C)O)[C@@H](C)O)[C@@H](C)CC)[C@@H](C)CC)C(C)C)C(=O)N[C@@H](C)C(=O)NCC(=O)NCC(=O)N1CCC[C@H]1C(=O)N[C@@H](CO)C(=O)N[C@@H](CO)C(=O)NCC(=O)N[C@@H](C)C(=O)N1CCC[C@H]1C(=O)N1CCC[C@H]1C(=O)N1CCC[C@H]1C(=O)N[C@@H](CO)C(N)=O [Compound 224] ({Isobutyryl(2-(3-CN-5-F-Ph))}-[β2hAla(2S)]EGTFTSDYSI[Aib]LDKIAQK([AEEA-AEEA-γGlu-C20 diacid])AFVQWLIAGGPSSGAPPPS-NH2),9.00 to 10.00,102%,8.00 to 9.00,103%,< 6.00,> 6.00
CC[C@H](C)[C@H](NC(=O)[C@H](CC(C)C)NC(=O)[C@H](Cc1c[nH]c2ccccc12)NC(=O)[C@H](CCC(N)=O)NC(=O)[C@@H](NC(=O)[C@H](Cc1ccccc1)NC(=O)[C@H](C)NC(=O)[C@H](CCCCNC(=O)COCCOCCNC(=O)COCCOCCNC(=O)CC[C@H](NC(=O)CCCCCCCCCCCCCCCCCCC(=O)O)C(=O)O)NC(=O)[C@H](CCC(N)=O)NC(=O)[C@H](C)NC(=O)[C@@H](NC(=O)[C@H](CCCCN)NC(=O)[C@H](CC(=O)O)NC(=O)[C@H](CC(C)C)NC(=O)C(C)(C)NC(=O)[C@@H](NC(=O)[C@H](CO)NC(=O)[C@H](Cc1ccc(O)cc1)NC(=O)[C@H](CC(=O)O)NC(=O)[C@H](CO)NC(=O)[C@@H](NC(=O)[C@H](Cc1ccccc1)NC(=O)[C@@H](NC(=O)CNC(=O)[C@H](CCC(=O)O)NC(=O)CCNC(=O)C(C)(C)c1cccc(OC)c1)[C@@H](C)O)[C@@H](C)O)[C@@H](C)CC)[C@@H](C)CC)C(C)C)C(=O)N[C@@H](C)C(=O)NCC(=O)NCC(=O)N1CCC[C@H]1C(=O)N[C@@H](CO)C(=O)N[C@@H](CO)C(=O)NCC(=O)N[C@@H](C)C(=O)N1CCC[C@H]1C(=O)N1CCC[C@H]1C(=O)N1CCC[C@H]1C(=O)N[C@@H](CO)C(N)=O [Compound 209] ({X55-βAla}-EGTFTSDYSI[Aib]LDKIAQK([AEEA-AEEA-γGlu-C20 diacid])AFVQWLIAGGPSSGAPPPS-NH2),9.00 to 10.00,101%,7.00 to 8.00,105%,< 6.00,< 6.00
